For series [1] the following is noted: commercial hydrochloride form, result in words; cited from earlier work.
The conditions of series [2]: general knowledge on the commercial form, cited from earlier work.
A short description of series [3]: thermal stability of aqueous solution (80 °C, 20 h). The series is classed as physicochemical. An excerpt:
Erfindungsgegenstand ist demzufolge eine wäßrige Lösung eines Decaplaninsalzes, ausgewählt aus der Gruppe der Decaplaninacetate, Decaplaninphosphate und Decaplanintartrate. Aus dieser Gruppe sind die Decaplaninacetate besonders bevorzugt. Die erfindungsgemäßen wässrigen Lösungen haben wie bereits erläutert den Vorteil, daß in ihnen das jeweilige Salz in relativ hoher Konzentration vorliegen kann, ohne daß das betreffende Salz ausfällt. […] So zeigt sich z.B. in einer 0,2 %igen wäßrigen Decaplaninmonoacetatlösung bei einer 20 stündigen Temperaturbelastung von 80 °C nur ein Wirkstoffverlust von weniger als 5 %; Vancomycinhydrochlorid hingegen weist bei einer analogen Behandlung nur noch einen Gehalt von etwa 25 % Vancomycinhydrochlorid auf. Die Instabilität des Vancomycins resultiert aus seiner Umwandlung zum sogenannten CDP (vgl. F. Sztaricskai und R. Bognar, Chemistry of the Vancomycin Group of Antibiotics. In:Recent Developments in the Chemistry of Natural Carbon Compounds, Vol. 10, PP 93-201, 1984, Akademiai Kiado, Budapest, 1983). Es ist besonders überraschend, daß die erfindungsgemäßen Decaplaninsalze diese Umwandlung nicht in diesem Ausmaß erleiden. Weiterhin besonders überraschend ist die bereits erwähnte, im Gegensatz zum Vancomycinhydrochlorid stehende gute lokale Verträglichkeit der erfindungsgemäßen wäßrigen Decaplaninsalzlösungen, die ohne besondere Vorsichtsmaßnahmen - wie langsame Injektion - injiziert werden können und auch subcutan verabreichbar sind.

The nature of another series: solubility in water. Conditions: result in words.
The nature of series [4]: toxicity and tolerability on injection. The conditions noted are these: result in words; for Verträglichkeit: injection.
The nature of the next series: isoelectric point. In kind it is physicochemical.
For series [5] the following is noted: in vivo.
The conditions of series [6]: water.
Series [7] is described as follows: viscosity / gelling of aqueous salt solutions. The series is classed as physicochemical. The conditions noted are these: result in words. Here is the method: 10,2 g des nach Beispiel 3 gewonnenen Gefriertrocknungsproduktes werden in 90 ml Wasser gelöst. Sie ergeben 100 ml einer Flüssigkeit mit einer Viskosität von weniger als 3 Centipoise (cP) bei 20 °C.
10 g des nach Beispiel 3 gewonnenen Produktes werden in 40 ml Wasser aufgenommen und durch Zugabe von […] Eisessig eine Decaplanindiacetatlösung hergestellt. Die Lösung hat einen pH-Wert von 4,2. Ihre Viskosität beträgt weniger als 3 cP bei 20 °C.

The values that follow come from patent EP0437846A2, “Solutions of decaplanin salts, their preparation and their use, as well as crystalline decaplanin salts, their preparation and their use” (HOECHST AKTIENGESELLSCHAFT, priority 1990, dated 1991).

Where a name gives a salt, the structure may show the parent alone. Read-outs that look alike come from different tables or passages of the source. A value given as a limit tells only on which side of the number the result lay.

In the case of `CN[C@H](CC(C)C)C(=O)N[C@H]1C(=O)N[C@@H](CC(N)=O)C(=O)N[C@H]2C(=O)N[C@H]3C(=O)N[C@H](C(=O)N[C@H](C(=O)O)c4cc(O)cc(O)c4-c4cc3ccc4O)[C@H](O)c3ccc(c(Cl)c3)Oc3cc2cc(c3O[C@@H]2O[C@H](CO)[C@@H](O)[C@H](O)[C@H]2O[C@H]2C[C@](C)(N)[C@H](O)[C@H](C)O2)Oc2ccc(cc2Cl)[C@H]1O` [Vancomycinhydrochlorid], the Löslichkeit entry in series [1] is on record as “relativ wenig löslichen Form”. Besides, in [2], the Nebenwirkungen result is listed as “lokale Nekrosen, das "red man-Syndrom" sowie Oto- und Nephrotoxizität”. For the same molecule, in [2] (injection), the Verträglichkeit entry was “schlecht verträglich”. Moreover, the remaining at 20 h in series [3] (water, remaining content after analogous treatment (20 h, 80 °C), read-out: Gehalt) was approximately 25%.

With Decaplanin, the “Löslichkeit in Wasser” value in the series “solubility in water” was “relativ wenig wasserlöslich”. Besides, in series [4], the Verträglichkeit result is given as “gute Verträglichkeit” and the Toxizität entry is given as “sehr geringe Toxizität”. In addition, the “isoelektrischer Punkt” value in “isoelectric point” is 8,1 pH.

As for Decaplaninacetat, in [5], the Toxizität entry was “sehr geringe Toxizität”. Moreover, the “Löslichkeit (Konzentration)” value in series [6] is “ca. 20 Gew.-%”. Further, the “Gelieren / Viskosität der wäßrigen Lösung” value in series [7] is recorded as “dünnflüssig”. In addition, the “Stabilität der Lösung” value in series [3] is “stabil”.

In turn, Decaplaninmonoacetat had a Wirkstoffverlust in series [3] (water, 20 h) of less than 5%.

Turning to Decaplaninphosphate, in [5], the Verträglichkeit entry was “gute Verträglichkeit”. Moreover, the Toxizität result in series [4] is reported as “sehr geringe Toxizität”.

Regarding Decaplanintartrate, in “solubility in water”, the “Löslichkeit in Wasser” value is given as “gutes Löslichkeitsverhalten”. Moreover, in series [4], the Verträglichkeit entry is on record as “gute Verträglichkeit” and the Toxizität entry is “sehr geringe Toxizität”.

As for Hydrochlorid, the “Löslichkeit in Wasser” value in the series “solubility in water” is given as “nicht ausreichend löslich”. In addition, the “Gelieren / Viskosität der wäßrigen Lösung” value in series [7] was “zähflüssig”.
